Results as given in PubChem BioAssay (NCI).
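Growth conditions: 96-well plates. Treatment: test compound, 48 hours, 5 concentrations. Analysis: linear interpolation between bracketing concentrations; unreached endpoints set to highest concentration. GI50 is the concentration that inhibits growth by half. At the TGI there is no net growth.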

Key:
Assay in all cases: growth of human tumour cells (NCI), 48 h
HOP-92 NSCLC = tested on: HOP-92 NSCLC
NCI-H226 lung = tested on: NCI-H226 lung
MDA-MB-468 breast = tested on: MDA-MB-468 breast
NCI/ADR-RES ovarian = tested on: NCI/ADR-RES ovarian
HCT-15 colon = tested on: HCT-15 colon
SN12C renal = tested on: SN12C renal
COLO 205 colon = tested on: COLO 205 colon
OVCAR-4 ovarian = tested on: OVCAR-4 ovarian
LOX IMVI melanoma = tested on: LOX IMVI melanoma
MCF7 breast = tested on: MCF7 breast
HS 578T breast = tested on: HS 578T breast
SK-MEL-2 melanoma = tested on: SK-MEL-2 melanoma
BT-549 breast = tested on: BT-549 breast
HCC-2998 colon = tested on: HCC-2998 colon
OVCAR-5 ovarian = tested on: OVCAR-5 ovarian
UACC-257 melanoma = tested on: UACC-257 melanoma
NCI-H522 lung = tested on: NCI-H522 lung
HCT-116 colon = tested on: HCT-116 colon
RPMI-8226 leukemia = tested on: RPMI-8226 leukemia
SF-268 CNS = tested on: SF-268 CNS
RXF 393 renal = tested on: RXF 393 renal
OVCAR-8 ovarian = tested on: OVCAR-8 ovarian
U251 CNS = tested on: U251 CNS
PC-3 prostate = tested on: PC-3 prostate
SNB-19 CNS = tested on: SNB-19 CNS
HL-60(TB) leukemia = tested on: HL-60(TB) leukemia
UACC-62 melanoma = tested on: UACC-62 melanoma
CAKI-1 renal = tested on: CAKI-1 renal
A498 renal = tested on: A498 renal
EKVX NSCLC = tested on: EKVX NSCLC
SNB-75 CNS = tested on: SNB-75 CNS
SF-295 CNS = tested on: SF-295 CNS
SK-OV-3 ovarian = tested on: SK-OV-3 ovarian
MALME-3M melanoma = tested on: MALME-3M melanoma
M14 melanoma = tested on: M14 melanoma
TK-10 renal = tested on: TK-10 renal
IGROV1 ovarian = tested on: IGROV1 ovarian
T-47D breast = tested on: T-47D breast
SK-MEL-5 melanoma = tested on: SK-MEL-5 melanoma
K-562 leukemia = tested on: K-562 leukemia
SF-539 CNS = tested on: SF-539 CNS
A549 NSCLC = tested on: A549 NSCLC
NCI-H23 lung = tested on: NCI-H23 lung
OVCAR-3 ovarian = tested on: OVCAR-3 ovarian
ACHN renal = tested on: ACHN renal
HOP-62 NSCLC = tested on: HOP-62 NSCLC
SK-MEL-28 melanoma = tested on: SK-MEL-28 melanoma
HT29 colon = tested on: HT29 colon
KM12 colon = tested on: KM12 colon
MDA-MB-231 breast = tested on: MDA-MB-231 breast
786-0 renal = tested on: 786-0 renal
DU-145 prostate = tested on: DU-145 prostate
MDA-MB-435 = tested on: MDA-MB-435
UO-31 renal = tested on: UO-31 renal
CCRF-CEM leukemia = tested on: CCRF-CEM leukemia

Cn1cc(-c2cc(N)n3nc(-c4c[nH]c5ccccc45)cc3n2)c2cc(Br)cnc21 gave a GI50 (HOP-92 NSCLC) of 1650 nM, a TGI (HOP-92 NSCLC) of 3.44 µM and a GI50 (NCI-H226 lung) of 3.29 µM. For the same compound, the TGI (NCI-H226 lung) was 16.3 µM, the GI50 (MDA-MB-468 breast) was 2230 nM and the TGI (MDA-MB-468 breast) was 5.42 µM. The GI50 (NCI/ADR-RES ovarian) was 2210 nM, the TGI (NCI/ADR-RES ovarian) was 5.16 µM and the GI50 (HCT-15 colon) was 1700 nM. The TGI (HCT-15 colon) was 3.51 µM, the GI50 (SN12C renal) was 5.02 µM and the TGI (SN12C renal) was 21.1 µM. For the same compound, the GI50 (COLO 205 colon) was 1960 nM, the TGI (COLO 205 colon) was 3.59 µM and the GI50 (OVCAR-4 ovarian) was 2700 nM. It also gave a TGI (OVCAR-4 ovarian) of 9.4 µM, a GI50 (LOX IMVI melanoma) of 1640 nM and a TGI (LOX IMVI melanoma) of 2990 nM. It also gave a GI50 (MCF7 breast) of 1950 nM, a TGI (MCF7 breast) of 4.58 µM and a GI50 (HS 578T breast) of 2610 nM. For the same compound, the TGI (HS 578T breast) was 14.9 µM, the GI50 (SK-MEL-2 melanoma) was 1990 nM and the TGI (SK-MEL-2 melanoma) was 4.48 µM. For the same compound, the GI50 (BT-549 breast) was 4.1 µM, the TGI (BT-549 breast) was 18 µM and the GI50 (HCC-2998 colon) was 1650 nM. For the same compound, the TGI (HCC-2998 colon) was 3.08 µM, the GI50 (OVCAR-5 ovarian) was 1820 nM and the TGI (OVCAR-5 ovarian) was 4.94 µM. It also gave a GI50 (UACC-257 melanoma) of 3.5 µM, a TGI (UACC-257 melanoma) of 18.4 µM and a GI50 (NCI-H522 lung) of 1840 nM. It also gave a TGI (NCI-H522 lung) of 3.67 µM, a GI50 (HCT-116 colon) of 1820 nM and a TGI (HCT-116 colon) of 3.39 µM. The GI50 (RPMI-8226 leukemia) was 3.07 µM, the TGI (RPMI-8226 leukemia) was 10.5 µM and the GI50 (SF-268 CNS) was 2420 nM. It also gave a TGI (SF-268 CNS) of 7.66 µM, a GI50 (RXF 393 renal) of 2540 nM and a TGI (RXF 393 renal) of 6.15 µM. It also gave a GI50 (OVCAR-8 ovarian) of 3.22 µM, a TGI (OVCAR-8 ovarian) of 15.2 µM and a GI50 (U251 CNS) of 2020 nM. The TGI (U251 CNS) was 4.53 µM, the GI50 (PC-3 prostate) was 2410 nM and the TGI (PC-3 prostate) was 7.91 µM. For the same compound, the GI50 (SNB-19 CNS) was 2760 nM, the TGI (SNB-19 CNS) was 8.76 µM and the GI50 (HL-60(TB) leukemia) was 2010 nM. The TGI (HL-60(TB) leukemia) was 4.67 µM, the GI50 (UACC-62 melanoma) was 1660 nM and the TGI (UACC-62 melanoma) was 3.28 µM. For the same compound, the GI50 (CAKI-1 renal) was 1690 nM, the TGI (CAKI-1 renal) was 3.87 µM and the GI50 (A498 renal) was 4.9 µM. The TGI (A498 renal) was 19.1 µM, the GI50 (EKVX NSCLC) was 3.14 µM and the TGI (EKVX NSCLC) was 13.7 µM. For the same compound, the GI50 (SNB-75 CNS) was 1700 nM, the TGI (SNB-75 CNS) was 17.1 µM and the GI50 (SF-295 CNS) was 1810 nM. The TGI (SF-295 CNS) was 3.87 µM, the GI50 (SK-OV-3 ovarian) was 5.91 µM and the TGI (SK-OV-3 ovarian) was 34.8 µM. It also gave a GI50 (MALME-3M melanoma) of 2140 nM, a TGI (MALME-3M melanoma) of 4.52 µM and a GI50 (M14 melanoma) of 1910 nM. It also gave a TGI (M14 melanoma) of 3.87 µM, a GI50 (TK-10 renal) of 2690 nM and a TGI (TK-10 renal) of 6.3 µM. The GI50 (IGROV1 ovarian) was 3.29 µM, the TGI (IGROV1 ovarian) was 13.2 µM and the GI50 (T-47D breast) was 3.22 µM. The TGI (T-47D breast) was 14.3 µM, the GI50 (SK-MEL-5 melanoma) was 3.46 µM and the TGI (SK-MEL-5 melanoma) was 13.9 µM. The GI50 (K-562 leukemia) was 2880 nM, the TGI (K-562 leukemia) was over 100 µM and the GI50 (SF-539 CNS) was 1670 nM. The TGI (SF-539 CNS) was 3.11 µM, the GI50 (A549 NSCLC) was 2780 nM and the TGI (A549 NSCLC) was 11.1 µM. The GI50 (NCI-H23 lung) was 1870 nM, the TGI (NCI-H23 lung) was 4.16 µM and the GI50 (OVCAR-3 ovarian) was 1740 nM. The TGI (OVCAR-3 ovarian) was 3.37 µM, the GI50 (ACHN renal) was 2170 nM and the TGI (ACHN renal) was 6.21 µM. It also gave a GI50 (HOP-62 NSCLC) of 2120 nM, a TGI (HOP-62 NSCLC) of 5.44 µM and a GI50 (SK-MEL-28 melanoma) of 2180 nM. It also gave a TGI (SK-MEL-28 melanoma) of 5.6 µM, a GI50 (HT29 colon) of 1800 nM and a TGI (HT29 colon) of 3.61 µM. For the same compound, the GI50 (KM12 colon) was 1790 nM, the TGI (KM12 colon) was 3.98 µM and the GI50 (MDA-MB-231 breast) was 1790 nM. The TGI (MDA-MB-231 breast) was 3.91 µM, the GI50 (786-0 renal) was 1810 nM and the TGI (786-0 renal) was 3.45 µM. The GI50 (DU-145 prostate) was 3.58 µM, the TGI (DU-145 prostate) was 12.2 µM and the GI50 (MDA-MB-435) was 1930 nM. For the same compound, the TGI (MDA-MB-435) was 3.96 µM, the GI50 (UO-31 renal) was 2480 nM and the TGI (UO-31 renal) was 10.6 µM. The GI50 (CCRF-CEM leukemia) was 3.71 µM and the TGI (CCRF-CEM leukemia) was over 100 µM.
